# In PubChem BioAssay (NCI):
#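 Method: 48-hour compound exposure of cells in 96-well plates, five concentrations, linear interpolation of endpoints. TGI: total growth inhibition.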 Where a SMILES comes first, the peptide text is derived from it. [ ]: non-standard residue; d: D form. The star is where a group is joined. Tyr(3-Br) = N[C@@H](Cc1ccc(O)c(Br)c1)C(=O)O; Boc = CC(C)(C)OC(=O)*
# Tests used:
# Assay in all cases: NCI-60 cell line screen, 48 h
# [1] = system: 786-0 renal
# [2] = system: ACHN renal
# [3] = system: CAKI-1 renal
# [4] = system: HCT-15 colon
# [5] = system: HL-60(TB) leukemia
# [6] = system: HS 578T breast
# [7] = system: OVCAR-5 ovarian
# [8] = system: PC-3 prostate
# [9] = system: SNB-19 CNS
# [10] = system: SW-620 colon
# [11] = system: T-47D breast
# [12] = system: UO-31 renal
SMILES,TGI [1] [µM],TGI [2] [µM],TGI [3] [µM],TGI [4] [µM],TGI [5] [µM],TGI [6] [µM],TGI [7] [µM],TGI [8] [µM],TGI [9] [µM],TGI [10] [µM],TGI [11] [µM],TGI [12] [µM]
Oc1ccccc1C=Nc1ccc(-c2nc3ccccc3[nH]2)cc1,> 100,> 100,> 100,> 100,> 100,> 100,> 100,> 100,> 100,> 100,66.5,> 100
C[C@]12Cc3cnn(-c4ccc(F)cc4)c3NC1CC[C@@H]1C2CC[C@@]2(C)C1CC[C@@H]2O (stereo partly drawn),11.9,29.4,49.4,,11.8,26.5,30.5,21.9,56.1,13.6,17,22.5
Cc1cc(-c2nc3ccccc3s2)ccc1N,> 79.6,> 95.1,> 82.4,> 89.3,> 90.3,> 100,70.6,> 88.8,> 100,> 100,> 85.9,88.3
O=C(Nc1nn(C(=O)c2ccc(Cl)cc2)c(=O)s1)c1ccc(Cl)cc1,> 100,> 100,> 100,> 100,> 100,> 100,> 100,> 100,> 100,> 100,> 100,> 100
CC1(C)CC23CC(C)(C)c4cccc(c42)OCc2ccc4ccc5ccc(nc5c4n2)COc2cccc1c23,> 50,> 50,> 50,> 50,> 50,> 50,> 50,> 50,> 5,> 50,> 50,> 50
COc1ccc(/C=C2\CCC(C)/C(=C\c3ccc(OC)c(OC)c3)C2=O)cc1OC (stereo not drawn),19.4,16.7,21.6,21.2,5.93,88.3,26.6,23.4,39.3,> 100,28.2,23.3
CCCCOC(=O)NC(Nc1cccc(C(F)(F)F)c1)(C(F)(F)F)C(F)(F)F,> 100,> 100,> 100,> 100,56.2,> 100,> 100,> 100,> 100,> 100,45.3,> 100
CCOC(=O)C(C(=O)c1ccccc1C(=O)OC)=P(c1ccccc1)(c1ccccc1)c1ccccc1,> 10,> 10,> 10,> 10,> 10,> 10,> 10,> 10,> 10,> 10,> 10,> 10
CC(=O)NNc1nc(C)c(C(/C=C/c2ccc([N+](=O)[O-])cc2)=N/NC(N)=S)s1,> 100,> 100,> 100,> 100,> 100,> 100,> 100,> 100,> 100,> 100,> 100,> 100
CC(C)(C)c1cc2c(O)c(c1)Cc1cc(C(C#N)(Cc3ccc4ccccc4c3)Cc3ccc4ccccc4c3)cc(c1O)Cc1cc(C(C)(C)C)cc(c1O)Cc1cc(C(C#N)(Cc3ccc4ccccc4c3)Cc3ccc4ccccc4c3)cc(c1O)C2,> 100,> 100,> 100,> 100,> 100,> 100,> 100,> 100,> 100,> 100,> 100,> 100
Nc1ncc(Cl)c(NCC2(CO)CC(CCc3ccccc3)C2)n1 (stereo not drawn),> 100,> 100,> 100,> 100,> 100,> 100,> 100,> 100,> 100,> 100,> 100,> 100
COc1cc(C(=O)O[C@@H]2[C@@H](OC(=O)c3cc(OC)c(OC)c(OC)c3)[C@@H](OC)O[C@@H]3CO[C@@H](c4ccccc4)O[C@@H]23)cc(OC)c1OC,> 100,> 100,> 100,> 100,> 100,> 100,> 100,> 100,> 100,> 100,> 100,> 100
CC1=CCC2C3(C)CCC2(C(C)C)C1C3 (stereo not drawn) (tested in a mixture with another compound),47.3,36.9,40.7,33.3,57.3,38.2,37.6,> 100,33.8,53.7,> 100,82.3
CN(C)Cc1cc(C(C)(C)C)ccc1-c1ccc(C(C)(C)C)cc1CN(C)C,> 100,> 100,> 100,> 100,> 100,> 100,> 100,> 100,> 100,> 100,> 100,> 100
CN1CCCCC(C#N)(c2ccccc2)CC1 (stereo not drawn),> 100,> 100,> 100,> 100,> 100,> 100,> 100,> 100,> 100,> 100,> 100,> 100
COC(=O)[C@H](Cc1ccc(O)c(Br)c1)NC(=O)[C@H](Cc1ccc(O)cc1)NC(=O)OC(C)(C)C (Boc-Tyr-[Tyr(3-Br)]-OMe),> 100,> 100,> 100,44,> 100,> 100,> 100,> 100,> 100,> 100,44.4,> 100
C/C=C1/CN2CCC3(O)c4ccccc4N4C=C(C(=O)OC)C1CC2C43O (stereo not drawn),> 100,> 100,> 100,> 100,> 100,> 100,> 100,> 100,> 100,> 100,> 100,> 100
